Measured values reported in patent US11542313B2, “Incretin analogs and uses thereof” (Eli Lilly and Company, priority 2017, dated 2023).
Several values for one entry are separate records, joined by “and”; a condition that tells them apart may be missing. Identical values can stand only once. Marks after values point to notes of the source that are not given here.

What was measured:
male Wistar rats = experiment: Intravenous glucose tolerance test (ivGTT), insulin secretion in male Wistar rats; type: in vivo, rat; set-up: unit not given here; conditions: semaglutide 10 nmol/kg positive control in the run of the Example, mean ± SEM, n=6
Description: An intravenous glucose tolerance test (ivGTT) in rats (male Wistar) is used to estimate insulinotropic potency of the exemplary analogs. The GLP-1 RA semaglutide is used as a positive control. Rats with surgically implanted cannulas in the jugular vein and carotid artery (Envigo, Indianapolis, Ind.; 280-320 grams) are housed one per cage in polycarbonate cages with filter tops. Rats are maintained on a 12-hour light-dark cycle at 21° C. and receive 2014 Teklad Global Diet (Envigo, Indianapolis) and deionized water ad libitum. Rats are randomized by body weight and dosed 1.5 mL/kg subcutaneous (sc) with exemplary analogs 16 hours prior to glucose administration, and then fasted. Stock concentrations of […] of the exemplary analogs are diluted in Tris buffer pH 8.0 to 6.667 nMol/mL, 2.0 nMol/mL, 0.667 nMol/mL, 0.2 nMol/mL; doses tested are vehicle, 1, 3 and 10 nMol/kg, and, in some cases 0.3 and 30 nMol/kg. Semaglutide is used as positive control, and its insulinotropic effects are measured both in its own test (vehicle and 1, 3, 10 and 30 nMol/kg doses) and in connection with each run of the exemplary analogs (10 nMol/kg dose).
A time 0 blood sample is collected into EDTA tubes after which glucose is administered ([…], 5 mL/kg). […] Plasma insulin is determined using an electrochemiluminescence assay (Meso Scale, Gaithersburg, Md.). […]

[1] = tested on: diet-induced obese (DIO) C57BL/6 mice; experiment: Diet-induced obese C57BL/6 mice, 15-day study; type: in vivo, mouse; conditions: for Body weight % change: days 1 to 15, DIO mice
Description: The exemplary incretin analogs as described herein are proposed as a treatment not only for diabetes but also for metabolic syndrome, which is a collection of co-morbidities (dyslipidemia, obesity, hepatic steatosis, etc.) associated with insulin resistance and diabetes. To investigate the effects of the exemplary analogs on parameters such as weight loss, metabolism, body composition and hepatic steatosis, they were dosed to C57BL/6 diet-induced obese (DIO) mice. These animals, although not diabetic, display insulin resistance, dyslipidemia and hepatic steatosis, all characteristics of metabolic syndrome, after being placed on a high-fat diet for 18 weeks.
Specifically, DIO male C57BL/6 mice 24 to 25 weeks old maintained on a calorie-rich diet are used in the following studies. Mice are individually housed in a temperature-controlled (24° C.) facility with 12-hour light/dark cycle (lights on 22:00) and free access to food (TD95217) and water. After a minimum of 2 weeks acclimation to the facility, the mice are randomized according to their body weight, so each experimental group of animals would have similar body weight. The body weights range from 40 to 51 g.
All groups contain 5-6 mice. Vehicle, exemplary analogs dissolved in vehicle (40 mM Tris-HCl at pH 8.0), and semaglutide dissolved in vehicle are administered by subcutaneous (SC) injection (10 mL/kg) to ad libitum fed DIO mice 30 to 90 minutes prior to the onset of the dark cycle every 3 days for 15 days. SC injections are made on Day 1, 4, 7, 10 and 13. Body weight and food intake are measured daily throughout the study.
Absolute changes in body weight are calculated by subtracting the body weight of the same animal prior to the first injection of vehicle, analog or semaglutide. On Days 0 and 15, total fat mass is measured by nuclear magnetic resonance (NMR) using an Echo Medical System Instrument (Houston, Tex.). On Day 15, animals are sacrificed prior to dark photoperiod, and the livers are removed and frozen. Liver triglycerides, determined from homogenates of livers collected at sacrifice, and plasma cholesterol are measured on a Hitachi Modular P clinical analyzer.
Data are presented as mean±SEM of 5-6 animals per group in Tables 7 and 8 below. Statistical analysis is performed using repeated measures ANOVA, followed by Dunnett's method for multiple comparisons. Significant differences are identified at p<0.05.

[2] = 3 nmol/kg, after fifteen days, DIO mice, mean ± SEM

## semaglutide
Male Wistar rats
  AUC30min of Insulin after a Bolus IV Glucose: 44.7 +/− 3.7* and 55.1 +/− 9.0* and 40.2 +/− 2.5* and 38.4 +/− 6.0* and 56.3 +/− 7.7* and 48.4 +/− 6.6* and 51.86 +/− 6.7* and 45.6 +/− 6.6*
[1]; 3 nmol/kg SC every 3 days
  Body weight % change: −2.62 ± 0.49%
[1]; [2]
  ALT: 99.8 ± 14.84 IU/L
  Cholesterol: 218.0 ± 9.23 mg/dL
  Glucose: 137.8 ± 7.34 mg/dL
  Liver Triglycerides: 226.4 ± 23.8 mg/g tissue
  Plasma Insulin: 4196 ± 1014 pg/mL
[1]; 10 nmol/kg SC every 3 days
  Body weight % change: −10.31 ± 1.25%
[1]; 30 nmol/kg SC every 3 days
  Body weight % change: −15.49 ± 2.44%
